The values below come from patent US8344145B2, “Salts of 2-substituted quinolines” (priority 2008, dated 2013).

Read-outs that look alike come from different tables or passages of the source.

Data set [1] in a line: Chemical stability of solutions in five solvents, HPLC daily for 9 days. Particulars: 200 μg/ml in methanol, pH 7 buffer, camphorsulfonic acid pH 2, DMSO, CMC 0.5%/Tween 80 0.5%, 4° C., ambient with light, ambient without light.
Description: The quinoline salts are dissolved at a concentration of 200 μg/ml in five different solvents: methanol, an aqueous solution buffered at pH 7, an aqueous camphorsulfonic acid solution at pH 2, dimethyl sulfoxide (DMSO) and an aqueous solution comprising a mixture of carboxymethylcellulose at 0.5% and Tween 80 at 0.5%.
Each preparation is divided into three parts which are stored under different conditions of temperature and of luminosity: at 4° C., at ambient temperature under the influence of light and at ambient temperature with the exclusion of light. The samples are diluted (1:20) and then analyzed by high performance liquid chromotography (HPLC) daily for 9 days.
Use was made, in carrying out the high performance liquid chromotography analysis, of a Waters LC system comprising a model 600 pump with inline degassing and, as detector, a 996 photodiode detector device. The acquisition of the data was carried out by the use of the Empower® program (Waters, France). The column used was a Symmetry Shield RP18, 3.5 μm 4.6×150 mm. […] The UV absorbance spectra were recorded at between 210 and 400 nm. The chromatogram of the propyl salt was recorded at 233 nm and that of the alcohol derivative at 249 nm.
In data set [2] the test system is female CD-1 mice. As to conditions: 5 animals. The method, then: (§1) 250 mg of carboxymethylcellulose are dissolved in 50 ml of a 5% glucose solution. 5 ml aliquots containing 0.5% of Tween 80 are emulsified with the quinoline salts (final concentrations at 0.4 mg/ml, 4 mg/ml and 40 mg/ml). The emulsions are subsequently homogenized. The emulsions are administered by force feeding in a single dose to four groups of five female CD-1 mice at the concentrations of 10 mg/kg, 100 mg/kg and 1000 mg/kg and without compounds (control group). The control group receives a glucose-comprising emulsion containing 0.5% of carboxymethyl-cellulose (CMC) and […]. The behavior of the animals is observed and the number of deaths is counted after 1 min, 15 min, 30 min, 1 h, 4 h, 8 h and each day for 14 days. On the final day, a blood sample is taken. Biochemical analyses are carried out in order to evaluate the nephrotoxicity and the hepatotoxicity, the levels of creatinine, of aspartate aminotransferase (ASAT), of alanine aminotransferase (ALAI) and of cholesterol being quantitatively determined.

Data set [3] can be described thus: Hygroscopicity: water vapour sorption/desorption isotherm (DVS-1000). It is filed as physicochemical. Particulars: 25° C./60% relative humidity, in comparison with weight equilibrated at 0% relative humidity at 25° C. Here is the method: The hygroscopicity of the 2-(n-propyl)quinoline camsylate crystals is evaluated by studying the sorption/desorption isotherm of water in the vapor phase on a device of DVS-1000 type sold by SMS.
The sample, analyzed in a quartz pan with a specimen size of the order of 10 mg, is subjected to two cycles of variation in relative humidity (RH) which are linked together continuously. Each cycle comprises two stages, adsorption and then desorption of water, during which the relative humidity in the measuring chamber is increased and then decreased gradually according to the conditions described in table 2.
The sample is first dried under a stream of filtered dry air until its weight has stabilized. The stages of adsorption and of desorption are then made successively. The carrier gas used to maintain the relative humidity at a set percentage is air dried upstream of the device and delivered at a flow rate of 100 ml/min. During the progression of the program, the temperature in the measuring chamber is maintained at 25° C.

The subject of data set [4] is female CD-1 mice. As to the kind of experiment: Acute toxicity: blood biochemical parameters on the final day (nephrotoxicity, hepatotoxicity). Particulars: blood sample on final day (day 14). The method, then:
as §1

Turning to `CC1(C)C2CCC1(CS(=O)(=O)O)C(=O)C2.CCCc1ccc2ccccc2n1` (centres unmarked) [Camphorsulfonate salt of 2-(n-propyl)quinoline], the “chemical stability in solution” value is given as “chemical stability compatible with the development of a medicament” in data set [1] (listed as 2-(n-propyl)quinoline in the form of the camphorsulfonic acid salt) and “stable whatever the conditions tested” in data set [1] (listed as propyl salt). In addition, the acute toxicity observation result in data set [2] (single dose 10 mg/kg oral route) is listed as “absence of toxicity”; in data set [2] (single dose 100 mg/kg oral route), “absence of toxicity”; in data set [2] (single dose 1 g/kg oral route, t4 h), “t4 h = absence of toxicity”. In data set [2] (single dose 1 g/kg oral route, t15 min), the “mice showing signs of lethargy” value is “t15 min = 3 mice showed”. In addition, in data set [2] (single dose 1 g/kg oral route, t1 h), the lethargic mice entry is “t1 h = 2 lethargic mice”. In data set [3], the “increase in weight (water sorption)” value is listed as “less than 2%”. In addition, the values for the ALAT in data set [4] (dose 10 mg/kg oral), in data set [4] (dose 100 mg/kg oral) and in data set [4] (dose 1 g/kg oral) were 215 ± 123 IU/l, 168 ± 67 IU/l and 199 ± 89 IU/l, respectively. Besides, the ASAT in data set [4] (dose 10 mg/kg oral) is listed as 410 ± 57 IU/l; in data set [4] (dose 100 mg/kg oral) it was 515 ± 72 IU/l; in data set [4] (dose 1 g/kg oral), 422 ± 187 IU/l. Further, the figures for the Cholesterol in data set [4] (dose 10 mg/kg oral), in data set [4] (dose 100 mg/kg oral) and in data set [4] (dose 1 g/kg oral) were 3.9 ± 0.3 mM, 4.1 ± 0.5 mM and 3.8 ± 0.4 mM, respectively. The Creatinine in data set [4] (dose 10 mg/kg oral), in data set [4] (dose 100 mg/kg oral) and in data set [4] (dose 1 g/kg oral) was less than 18 µM each time.
